# “And” between values parts separate entries of the source, which are not always exact repeats. Equal values may be shown once.
# Assays:
# [1] = instrument: DT, stepped-field
# [2] = [M+H]+; instrument: TW; Major Mix IMS/Tof Calibration Kit (Waters)
collision cross section (N2) ([1]; [M+H]+),collision cross section (N2) ([1]; [M+Na]+),SMILES,other results
249.4 Å²,–,CC(C)C[C@H](NC(=O)[C@H](Cc1c[nH]cn1)NC(=O)[C@@H](N)CC(=O)O)C(=O)N[C@H](C(=O)NCC(=O)N[C@@H](CCCNC(=N)N)C(=O)O)C(C)C [DHLVGR],–
216.3 Å²,212.8 Å²,OC[C@H]1O[C@H](O[C@H]2[C@H](O)[C@@H](O)[C@@H](O[C@H]3[C@H](O)[C@@H](O)[C@@H](O)O[C@@H]3CO)O[C@@H]2CO)[C@H](O)[C@@H](O)[C@@H]1O [Maltotriose],collision cross section (N2) ([1]; [M+K]+): 216.8 Å²
204.6 Å²,203.5 Å²,N=C(N)NCCC[C@H](NC(=O)CNC(=O)[C@H](CC(=O)O)NC(=O)[C@@H](N)CO)C(=O)NCC(=O)O [SDGRG],collision cross section (N2) ([1]; [M+K]+): 205.4 Å²
332.9 Å²,–,CCC(C)[C@H](NC(=O)[C@@H](NC(=O)CN)C(C)C)C(=O)N[C@@H](Cc1ccccc1)C(=O)N[C@@H](Cc1ccc(O)cc1)C(=O)N[C@@H](CCC(=O)O)C(=O)N[C@@H](CO)C(=O)N[C@@H](Cc1c[nH]cn1)C(=O)NCC(=O)N[C@@H](CCCCN)C(=O)O (stereo partly specified) [GVIFYESHGK],–
–,340.5 Å² and 351.9 Å²,O=CC(OC1OC(CO)C(OC2OC(CO)C(O)C(O)C2O)C(OC2OC(CO)C(O)C(O)C2O)C1OC1OC(CO)C(O)C(O)C1O)C(OC1OC(CO)C(O)C(O)C1O)C(OC1OC(CO)C(O)C(O)C1O)C(COC1OC(CO)C(O)C(O)C1O)OC1OC(CO)C(O)C(O)C1O (stereo unspecified) [(Hex)9],collision cross section (N2) ([1]; [M+H-H2O]+): 356.2 Å²
–,302.3 Å²,CCCCCCCCCCCCCCCCCCCCCC(=O)N[C@@H](CO[C@@H]1O[C@H](CO)[C@@H](O)C(O)C1O)[C@H](O)CCCCCCCCCCCCCCC (stereo partly specified) [GlcCer(40:0)],–
–,220 Å²,CC(=O)NC1C(OC2C(O)C(CO)OC(OC(C(O)CO)C(O)C(O)C=O)C2O)OC(CO)C(O)C1O (stereo unspecified) [HexNAc-(Hex)2],collision cross section (N2) ([1]; [M+Na-H2O]+): 216.3 Å²
256.6 Å²,–,CC(C)[C@H](N)C(=O)N[C@@H](CCC(=O)O)C(=O)N[C@@H](CC(=O)O)C(=O)N[C@H](C(=O)N[C@@H](CC(=O)O)C(=O)N[C@@H](CCCNC(=N)N)C(=O)O)C(C)C [VEDVDR],–
–,291.4 Å²,CCCCCCCCCCCCC=CC[C@@H](O)[C@H](CO[C@@H]1O[C@H](CO)[C@@H](O)C(O)C1O)NC(=O)CC=CCCCCCCCCCCCCCCCC (stereo partly specified) [GlcCer(38:2)],–
–,283.7 Å²,CCCCC/C=C\C/C=C\C/C=C\C/C=C\CCCC(=O)O[C@H](COC(=O)CCCC/C=C\C/C=C\C/C=C\CCCCC)COP(=O)(O)OCCN [PE(38:7)],collision cross section (N2) ([1]; [M+K]+): 287 Å²
245 Å²,–,CSCC[C@H](NC(=O)[C@H](C)N)C(=O)NCC(=O)N[C@@H](Cc1ccc(O)cc1)C(=O)N[C@@H](CCCNC(=N)N)C(=O)O [AMGYR],–
–,301.3 Å²,CCCCC/C=C\C/C=C\C/C=C\C/C=C\CCCCCC(=O)OC[C@H](COP(=O)(O)OC[C@H](N)C(=O)O)OC(=O)CCC/C=C\C/C=C\C/C=C\C/C=C\CCCCC [PS(42:8)],–
–,306.1 Å²,CCCCCCCCCCCCC=CC[C@@H](O)[C@H](CO[C@@H]1O[C@H](CO)[C@@H](O)C(O)C1O)NC(=O)CC=CCC=CCCCCCCCCCCCCCCCCCC (stereo partly specified) [GlcCer(43:3)],–
301.3 Å² and 319.6 Å²,319.7 Å²,OC[C@H]1O[C@@H]2O[C@H]3[C@H](O)[C@@H](O)[C@@H](O[C@H]4[C@H](O)[C@@H](O)[C@@H](O[C@H]5[C@H](O)[C@@H](O)[C@@H](O[C@H]6[C@H](O)[C@@H](O)[C@@H](O[C@H]7[C@H](O)[C@@H](O)[C@@H](O[C@H]8[C@H](O)[C@@H](O)[C@@H](O[C@H]1[C@H](O)[C@H]2O)O[C@@H]8CO)O[C@@H]7CO)O[C@@H]6CO)O[C@@H]5CO)O[C@@H]4CO)O[C@@H]3CO [Beta-Cyclodextrin],collision cross section (N2) ([1]; [M+K]+): 320.3 Å²
–,297.1 Å²,CC/C=C\C/C=C\C/C=C\C/C=C\C/C=C\C/C=C\CCC(=O)O[C@H](COC(=O)CCC/C=C\C/C=C\C/C=C\C/C=C\CCCCC)COP(=O)(O)OC[C@H](N)C(=O)O [PS(42:10)],–
220.1 Å²,–,CSCC[C@H](NC(=O)[C@@H](N)Cc1c[nH]c2ccccc12)C(=O)NCC(=O)N[C@@H](CCCCN)C(=O)O [WMGK],–
–,297.8 Å²,CC/C=C\C/C=C\C/C=C\C/C=C\C/C=C\CCCC(=O)O[C@H](COC(=O)CCCC/C=C\C/C=C\C/C=C\C/C=C\CC)COP(=O)([O-])OCC[N+](C)(C)C [PC(38:9)],–
–,–,OCC1OC(OC2C(CO)OC(OC3C(CO)OC(OC4C(CO)OC(O)C(O)C4O)C(O)C3O)C(O)C2O)C(O)C(O)C1O (stereo unspecified) [(Hex)4],collision cross section (N2) ([1]; [M+H-H2O]+): 234.7 Å²; collision cross section (N2) ([1]; [M+K]+): 236.6 Å²; collision cross section (N2) ([1]; [M+Na-H2O]+): 234.8 Å²
–,302.3 Å²,CCCCCCCCCCCCC=CC[C@@H](O)[C@H](CO[C@@H]1O[C@H](CO)[C@@H](O)C(O)C1O)NC(=O)CC=CCC=CCCCCCCCCCCCCCCCCC (stereo partly specified) [GlcCer(42:3)],–
291.8 Å² and 277.8 Å²,–,CCC(C)[C@H](NC(=O)[C@@H](N)CC(=O)O)C(=O)N[C@H](C(=O)NCC(=O)N[C@@H](C)C(=O)N[C@H](C(=O)N[C@@H](CC(C)C)C(=O)N[C@@H](CCCCN)C(=O)O)C(C)C)C(C)C (stereo partly specified) [DIVGAVLK],–
219 Å²,–,NCCCC[C@H](NC(=O)[C@H](CC(N)=O)NC(=O)[C@H](CCC(=O)O)NC(=O)[C@@H](N)CCC(N)=O)C(=O)O [QENK],–

collision cross section (N2) ([1]; [M+H]+),collision cross section (N2) ([1]; [M+Na]+),SMILES,other results
–,–,CCCCC[N+](CCCCC)(CCCCC)CCCCC [TAA5],collision cross section (N2) ([1]; [M]+): 190.1 Å²
238.3 Å²,235.3 Å²,OC[C@H]1O[C@H](O[C@H]2[C@H](O)[C@@H](O)[C@@H](O[C@H]3[C@H](O)[C@@H](O)[C@@H](O[C@H]4[C@H](O)[C@@H](O)C(O)O[C@@H]4CO)O[C@@H]3CO)O[C@@H]2CO)[C@H](O)[C@@H](O)[C@@H]1O (stereo partly specified) [Maltotetraose],–
269.9 Å²,–,CC(C)C[C@H](NC(=O)[C@@H](NC(=O)CN)C(C)C)C(=O)N[C@@H](Cc1c[nH]cn1)C(=O)N[C@@H](C)C(=O)N[C@H](C(=O)N[C@@H](CCCCN)C(=O)O)C(C)C [GVLHAVK],–
–,–,CCCCC/C=C\C/C=C\C/C=C\CCCCC(=O)OC[C@H](COP(=O)(O)OCCN)OC(=O)CCCCCCC/C=C\CCCCCCCCC [PE(37:4)],collision cross section (N2) ([1]; [M+K]+): 284.7 Å²
–,–,OCC1OC(OC2C(CO)OC(OC3C(CO)OC(OC4C(CO)OC(OC5C(CO)OC(OC6C(CO)OC(OC7C(CO)OC(OC8C(CO)OC(OC9C(CO)OC(OC%10C(CO)OC(OC%11C(CO)OC(OC%12C(CO)OC(O)C(O)C%12O)C(O)C%11O)C(O)C%10O)C(O)C9O)C(O)C8O)C(O)C7O)C(O)C6O)C(O)C5O)C(O)C4O)C(O)C3O)C(O)C2O)C(O)C(O)C1O (stereo unspecified) [(Hex)12],collision cross section (N2) ([1]; [M+H-H2O]+): 400.3 Å² and 422.9 Å²; collision cross section (N2) ([1]; [M+Na-H2O]+): 390.6 Å² and 410 Å²
238.3 Å²,–,C[C@H](N)C(=O)N[C@@H](Cc1ccccc1)C(=O)N[C@@H](CC(=O)O)C(=O)N[C@@H](CCC(=O)O)C(=O)N[C@@H](CCCCN)C(=O)O [AFDEK],–
–,–,CCCCC=CCC=CCC=CCC(=O)OC[C@H](COP(=O)(O)OCCN)OC(=O)CC=CCC=CCC=CCCCC [PE(28:6)],collision cross section (N2) ([1]; [M+K]+): 248.7 Å²
–,273.6 Å²,CCCC/C=C\CCCCCCCC(=O)OC[C@H](COP(=O)(O)OCCN)OC(=O)CCCCCC/C=C\C/C=C\C/C=C\CCCCC [PE(34:4)],–
–,139.4 Å²,OC[C@@H](O)[C@@H](O)[C@H](O)[C@@H](O)CO [Sorbitol],–
–,303.9 Å²,CCCCCCCCCCCCC=CC[C@@H](O)[C@H](COP(=O)([O-])OCC[N+](C)(C)C)NC(=O)CC=CCCCCCCCCCCCCCCCCCCC [SM(41:2)],–
–,299.6 Å²,CCCCCCCCCCCCC=CC[C@@H](O)[C@H](CO[C@@H]1O[C@H](CO)[C@@H](O)C(O)C1O)NC(=O)CC=CCCCCCCCCCCCCCCCCCCC (stereo partly specified) [GlcCer(41:2)],–
245.5 Å²,–,CCC(C)[C@H](NC(=O)[C@H](CCC(N)=O)NC(=O)CN)C(=O)N[C@H](C(=O)NCC(=O)N[C@@H](CCCNC(=N)N)C(=O)O)C(C)C (stereo partly specified) [GQIVGR],–
–,293.6 Å²,CC/C=C\C/C=C\C/C=C\C/C=C\CCCCC(=O)OC[C@H](COP(=O)(O)OC[C@H](N)C(=O)O)OC(=O)CCCCC/C=C\C/C=C\C/C=C\C/C=C\CCCCC [PS(40:8)],–
252.8 Å²,–,CCC(C)[C@H](NC(=O)[C@H](CO)NC(=O)[C@H](C)NC(=O)[C@@H](N)CS)C(=O)N[C@@H](CCC(N)=O)C(=O)N[C@@H](CCCCN)C(=O)O (stereo partly specified) [CASIQK],–
–,–,CCCC[N+](CCCC)(CCCC)CCCC [TAA4],collision cross section (N2) ([1]; [M]+): 166.6 Å²
217.1 Å²,–,N=C(N)NCCC[C@H](NC(=O)[C@H](CCC(=O)O)NC(=O)CNC(=O)[C@@H](N)Cc1ccccc1)C(=O)O [FGER],–
–,277.3 Å²,CCCCCCCCCCCCC=CC[C@@H](O)[C@H](CO[C@@H]1O[C@H](CO)[C@@H](O)C(O)C1O)NC(=O)CCCCCCCCCCCCCCC (stereo partly specified) [GlcCer(34:1)],–
–,–,COc1ccc2c(c1)c(CC(=O)O)c(C)n2C(=O)c1ccc(Cl)cc1 [Indomethacin],collision cross section (N2) [2]: 179.5 Å²
–,–,Cc1cnc(NC(=O)C2=C(O)c3ccccc3S(=O)(=O)N2C)s1 [Meloxicam],collision cross section (N2) [2]: 173.9 Å²
–,–,CCCCC1=NC2(CCCC2)C(=O)N1Cc1ccc(-c2ccccc2-c2nn[nH]n2)cc1 [Irbesartan],collision cross section (N2) [2]: 200.8 Å²

SMILES,collision cross section (N2) ([1]; [M+H]+),collision cross section (N2) ([1]; [M+Na]+),other results
CC(C)[C@H](NC(=O)[C@@H](N)Cc1ccc(O)cc1)C(=O)N[C@@H](CCCNC(=N)N)C(=O)O [YVR],207 Å²,–,–
CCC(C)[C@H](NC(=O)[C@H](CCC(=O)O)NC(=O)[C@H](Cc1ccc(O)cc1)NC(=O)[C@H](CC(C)C)NC(=O)[C@@H](N)Cc1ccc(O)cc1)C(=O)N[C@@H](C)C(=O)N[C@@H](CCCNC(=N)N)C(=O)O (stereo partly specified) [YLYEIAR],305 Å²,–,–

# Source: the C3SDB collision cross section collection
